Patent US9458176B2, “Tetrahydroimidazo(1,5-D)[1,4]oxazepine derivative” (Eisai R&D Management Co., Ltd., priority 2013, dated 2016)
pIC50: −log10 of the molar value.

biological target: human mGluR2 (Homo sapiens (Human), UniProt Q14416); assay: [35S]GTPγS binding assay (Affinity to mGluR2); type: biochemical; settings: cell membrane fraction of HEK293 cells stably expressing human mGluR2; glutamic acid 10 μM
Method: (Preparation of Cell Membrane Fraction of HEK293 Cells Stably Expressing Human Metabotropic Glutamate Receptor 2 (mGluR2))
HEK293 cells stably expressing human mGluR2 and human glutamate transporter SLC1A3 were cultured in a Dulbecco's modified Eagle's medium with 10% fetal bovine serum (50 units/mL of penicillin, 50 μg/mL of streptomycin, 60 μg/mL of geneticin, 400 μg/mL of hygromycin B and 2 mM of glutamine) at 37° C. under 5% CO2. Confluent cell cultures were washed twice with PBS(−), and then scraped off with a cell scraper, and subjected to centrifugal separation at 4° C. and 1500 rpm for 5 minutes for collecting cells. The centrifuged sediment (cell pellet) was homogenized in a 20 mM HEPES buffer containing 10 mM EDTA (pH 7.4) by using sonicator and centrifuged at 4° C. and 1500×g for 30 minutes. The supernatant (soluble fraction) was subjected to the centrifugal separation at 4° C. and 40,000×g for 30 minutes, and thus, insoluble fraction was obtained. After additional centrifugally washing the obtained fraction with 20 mM HEPES buffer containing 10 mM EDTA (pH 7.4), the pellet was centrifugally suspended with a 20 mM HEPES buffer containing 0.1 mM EDTA, and the cell membrane fraction was obtained by the centrifugal separation at 4° C. and 40,000×g for 30 minutes. The thus obtained cell membrane fraction was suspended in a 20 mM HEPES buffer containing 0.1 mM EDTA in a protein concentration of 3 mg/mL, which was stored at −80° C.
([^35S]GTPγS Binding Assay)
The frozen cell membrane fraction prepared as described above was thawed before use, and the resultant was diluted with a buffer for a binding assay (final concentrations: 20 mM HEPES, 100 mM NaCl, 1 mM MgCl2, 3 μM GDP, 300 μg/mL saponin, 0.1% BSA). The compound of each example was added to a cell membrane fraction containing 1.8 to 3 μg/assay of membrane protein on a plate, followed by incubation at room temperature for 30 minutes. Thereafter, with glutamic acid (in a final concentration of 10 μM) added thereto, incubation was performed at room temperature for 15 minutes, and thereafter, [^35S]GTPγS (in a final concentration of 0.8 kBq) and 588 μg WGA-SPA beads were added thereto, followed by incubation at room temperature for 1 hour. After the incubation, the plate was subjected to the centrifugal separation at 2,500 rpm and room temperature, and then, membrane cell binding radioactivity was measured with a top count.
A [^35S]GTPγS binding amount obtained by performing the above-described reaction in the absence of glutamic acid was defined as nonspecific binding, and a difference from a [^35S]GTPγS binding amount obtained in the presence of glutamic acid was defined as specific binding. On the basis of ratios of inhibiting the specific binding at various concentrations of the compounds of the respective examples, inhibition curves were obtained. Concentrations of the compounds of the respective examples at which the specific [^35S]GTPγS binding amount was suppressed by 50% (IC50 values) were calculated on the basis of the inhibition curves and shown in Tables 8 and 9.

Chain of human mGluR2 (Q14416 19-872): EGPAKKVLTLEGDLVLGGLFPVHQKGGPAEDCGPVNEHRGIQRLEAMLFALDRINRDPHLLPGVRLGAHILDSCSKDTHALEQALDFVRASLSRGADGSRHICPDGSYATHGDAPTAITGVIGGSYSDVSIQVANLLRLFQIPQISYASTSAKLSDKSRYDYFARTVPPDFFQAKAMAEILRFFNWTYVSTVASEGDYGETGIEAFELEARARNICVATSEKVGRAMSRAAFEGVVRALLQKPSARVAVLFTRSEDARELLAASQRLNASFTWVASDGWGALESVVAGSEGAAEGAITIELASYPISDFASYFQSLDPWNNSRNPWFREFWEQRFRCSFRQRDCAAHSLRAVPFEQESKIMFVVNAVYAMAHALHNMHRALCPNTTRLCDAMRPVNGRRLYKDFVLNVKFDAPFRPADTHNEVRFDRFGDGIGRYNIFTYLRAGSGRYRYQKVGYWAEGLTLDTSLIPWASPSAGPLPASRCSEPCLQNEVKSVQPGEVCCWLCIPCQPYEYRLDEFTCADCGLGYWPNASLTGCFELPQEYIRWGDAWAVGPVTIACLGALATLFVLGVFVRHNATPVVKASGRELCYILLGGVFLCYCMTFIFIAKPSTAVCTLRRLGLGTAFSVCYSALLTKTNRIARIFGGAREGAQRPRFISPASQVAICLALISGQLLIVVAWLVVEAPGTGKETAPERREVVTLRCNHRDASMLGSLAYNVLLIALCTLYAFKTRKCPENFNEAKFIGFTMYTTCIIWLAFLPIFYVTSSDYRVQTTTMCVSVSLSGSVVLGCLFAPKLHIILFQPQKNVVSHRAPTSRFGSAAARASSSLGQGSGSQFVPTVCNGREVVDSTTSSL

| Compound | pIC50 |
| --- | --- |
| COc1cc(-c2nc(-c3ccc(Cl)c(OC)c3)n3c2CCO[C@H](C)C3)cc(C)n1 [Example 57] | 7.55 |
| Cc1cc(-c2nc(-c3ccc(OC4CC4)c(Cl)c3)n3c2CCOCC3)cc(C)n1 [Example 135] | 7.43 |
| COc1cc(-c2nc(-c3cc(C)nc(CF)c3)c3n2C[C@@H](C)OCC3)ccc1Cl [Example 13, (R)-3-(4-chloro-3-methoxyphenyl)-1-(2-(fluoromethyl)-6-methylpyridin-4-yl)-6-methyl-5,6,8,9-tetrahydroimidazo[1,5-d][1,4]oxazepine] | 8.24 |
| COc1cc(-c2nc(-c3cc(C)nc(CF)c3)c3n2C[C@@H](C)OCC3)ccc1C [Example 90] | 7.90 |
| Cc1cc(-c2nc(-c3ccc(Cl)c(C(F)(F)F)c3)n3c2CCOCC3)cc(C)n1 [Example 108] | 7.72 |
| Cc1cc(-c2nc(-c3ccc(Cl)c(C#N)c3)n3c2CCOCC3)cc(C)n1 [Example 111] | 7.60 |
| Cc1cc(-c2nc(-c3ccc(F)c(OCC(C)C)c3)n3c2CCOCC3)cc(C)n1 [Example 95] | 7.31 |
| Cc1cc(-c2nc(-c3ccc(Cl)c(C)c3)n3c2CCO[C@H](C)C3)cc(C)n1 [Example 52] | 7.69 |
| CCCOc1cc(-c2nc(-c3cc(C)nc(C)c3)c3n2CCOCC3)ccc1F [Example 96] | 7.22 |
| COc1cc(-c2nc(-c3ccnc(CF)c3)c3n2C[C@@H](C)OCC3)ccc1Cl [Example 12, (R)-3-(4-chloro-3-methoxyphenyl)-1-(2-(fluoromethyl)pyridin-4-yl)-6-methyl-5,6,8,9-tetrahydroimidazo[1,5-d][1,4]oxazepine] | 7.55 |
| Cc1cc(-c2nc(-c3ccc(Cl)c(C)c3)n3c2CCO[C@H](CF)C3)cc(C)n1 [Example 73] | 7.61 |
| Cc1cc(-c2nc(-c3ccc(Cl)c(F)c3)n3c2CCO[C@H](C)C3)cc(C)n1 [Example 56] | 7.66 |
| Cc1cc(-c2nc(-c3ccc(Cl)c(Cl)c3)n3c2CCOCC3)cc(C)n1 [Example 103] | 7.59 |
| Cc1cc(-c2nc(-c3ccc(OC(C)C)c(Cl)c3)n3c2CCO[C@H](CF)C3)cc(C)n1 [Example 38, (S)-3-(3-chloro-4-isopropoxyphenyl)-1-(2,6-dimethylpyridin-4-yl)-6-(fluoromethyl)-5,6,8,9-tetrahydroimidazo[1,5-d][1,4]oxazepine] | 8.27 |
| Cc1cc(-c2nc(-c3ccc(Cl)c(C#N)c3)n3c2CCO[C@H](C)C3)cc(C)n1 [Example 130] | 7.59 |
| Cc1cc(-c2nc(-c3ccc(Cl)c(Cl)c3)n3c2CCO[C@H](CF)C3)cc(C)n1 [Example 76] | 7.68 |
| Cc1cc(-c2nc(-c3ccc(F)c(OCC(F)(F)F)c3)n3c2CCOCC3)cc(C)n1 [Example 93] | 7.54 |
| Cc1cc(-c2nc(-c3ccc(C(F)(F)F)c(F)c3)n3c2CCOCC3)cc(C)n1 [Example 107] | 7.27 |
| COc1cc(-c2nc(-c3cc(C)nc(C)c3)c3n2CCOCC3)ccc1Br [Example 4, 3-(4-bromo-3-methoxyphenyl)-1-(2,6-dimethylpyridin-4-yl)-5,6,8,9-tetrahydroimidazo[1,5-d][1,4]oxazepine] | 7.50 |
| CCOc1cc(-c2nc(-c3ccnc(C)c3)c3n2C[C@@H](C)OCC3)ccc1C(F)(F)F [Example 83] | 8.77 |
| COc1ccc(-c2nc(-c3cc(C)nc(C)c3)c3n2C[C@@H](C)OCC3)cc1Cl [Example 33, (R)-3-(3-chloro-4-methoxyphenyl)-1-(2,6-dimethylpyridin-4-yl)-6-methyl-5,6,8,9-tetrahydroimidazo[1,5-d][1,4]oxazepine] | 8.30 |
| Cc1cc(-c2nc(-c3ccc(F)c(OCC4CCC4)c3)n3c2CCOCC3)cc(C)n1 [Example 97] | 7.60 |
| COc1ccc(-c2nc(-c3cc(C)nc(C)c3)c3n2C[C@@H](CF)OCC3)cc1Cl [Example 36, (S)-3-(3-chloro-4-methoxyphenyl)-1-(2,6-dimethylpyridin-4-yl)-6-(fluoromethyl)-5,6,8,9-tetrahydroimidazo[1,5-d][1,4]oxazepine] | 8.00 |
| Cc1cc(-c2nc(-c3ccc(F)c(Cl)c3)n3c2CCO[C@H](C)C3)cc(C)n1 [Example 138] | 7.67 |
| Cc1cc(-c2nc(-c3ccc(F)c(OCC(F)F)c3)n3c2CCOCC3)cc(C)n1 [Example 92] | 7.02 |
| Cc1cc(-c2nc(-c3ccc(OC4CC4)c(C)c3)n3c2CCO[C@H](CF)C3)cc(C)n1 [Example 22, (S)-3-(4-cyclopropoxy-3-methylphenyl)-1-(2,6-dimethylpyridin-4-yl)-6-(fluoromethyl)-5,6,8,9-tetrahydroimidazo[1,5-d][1,4]oxazepine] | 8.39 |
| COc1cc(-c2nc(-c3cc(C)nc(C)c3)c3n2CCOCC3)ccc1C(F)(F)F [Example 122] | 7.66 |
| Cc1cc(-c2nc(-c3cccc(OC(F)(F)F)c3)n3c2CCO[C@H](C)C3)cc(C)n1 [Example 64] | 7.51 |
| Cc1cc(-c2nc(-c3ccc(OC(F)F)c(Cl)c3)n3c2CCO[C@H](C)C3)cc(C)n1 [Example 32, (R)-3-(3-chloro-4-(difluoromethoxy)phenyl)-1-(2,6-dimethylpyridin-4-yl)-6-methyl-5,6,8,9-tetrahydroimidazo[1,5-d][1,4]oxazepine] | 8.55 |
| Cc1cc(-c2nc(-c3ccc(Cl)c(Cl)c3)n3c2CCO[C@H](CF)C3)ccn1 [Example 75] | 7.51 |

same assay, conditions: cell membrane fraction of HEK293 cells stably expressing human mGluR2; glutamic acid 10 μM; inhibition of specific [35S]GTPγS binding

| Compound | pIC50 |
| --- | --- |
| COc1cc(-c2nc(-c3ccnc(C)c3)c3n2C[C@@H](CF)OCC3)ccc1OC(F)F [Example 164] | 7.43 |
| Cc1cc(-c2nc(-c3ccc(OC(F)(F)F)c(F)c3)n3c2CCO[C@H](CF)C3)ccn1 [Example 166] | 7.82 |
| Cc1cc(-c2nc(-c3ccc(OC(F)(F)F)c(F)c3)n3c2CCO[C@H](CF)C3)cc(CO)n1 [Example 170] | 7.37 |
| Cc1cc(-c2nc(-c3ccc(OC(F)(F)F)c(C)c3)n3c2CCO[C@H](CF)C3)ccn1 [Example 162] | 8.30 |
| CCc1ccc(-c2nc(-c3cc(C)nc(C)c3)c3n2C[C@@H](C)OCC3)cc1OCC1CC1 [Example 222] | 7.76 |
| Cc1cc(-c2nc(-c3ccc(OC(F)F)c(C)c3)n3c2CCO[C@H](CF)C3)cc(CF)n1 [Example 207] | 8.22 |
| Cc1cc(-c2nc(-c3ccc(OC(F)F)c(CO)c3)n3c2CCO[C@H](C)C3)cc(C)n1 [Example 235] | 7.66 |
| Cc1cc(-c2nc(-c3ccc(OC(F)(F)F)c(CO)c3)n3c2CCO[C@H](C)C3)cc(C)n1 [Example 229] | 7.74 |
| COc1ccc(-c2nc(-c3cc(C)nc(C)c3)c3n2C[C@@H](CF)OCC3)cc1OC(F)(F)F [Example 175] | 7.73 |
| CCOc1cc(-c2nc(-c3cc(C)nc(C)c3)c3n2CCOCC3)ccc1CC [Example 213] | 7.97 |
| Cc1cc(-c2nc(-c3ccc(OC4CC4)c(OC(F)(F)F)c3)n3c2CCOCC3)cc(C)n1 [Example 144] | 7.56 |
| Cc1cc(-c2nc(-c3ccc(OCC4CC4)c(Cl)c3)n3c2CCOCC3)cc(C)n1 [Example 217] | 7.22 |
| COc1cc(-c2nc(-c3cc(C)nc(C(F)F)c3)c3n2C[C@@H](C)OCC3)ccc1OC(F)F [Example 192] | 8.30 |
| Cc1cc(-c2nc(-c3ccc(OC4CC4)c(Cl)c3)n3c2CCO[C@H](C)C3)cc(CF)n1 [Example 205] | 8.28 |
| Cc1cc(-c2nc(-c3ccc(F)c(C(F)(F)F)c3)n3c2CCO[C@H](CF)C3)ccn1 [Example 174] | 7.61 |
| Cc1cc(-c2nc(-c3ccc(C(F)(F)F)c(C)c3)n3c2CCO[C@H](CF)C3)cc(C)n1 [Example 186] | 7.71 |
| COc1cc(-c2nc(-c3cc(C)nc(CO)c3)c3n2C[C@@H](CF)OCC3)ccc1C(F)(F)F [Example 156] | 8.14 |
| Cc1cc(-c2nc(-c3ccc(OC(F)(F)F)c(CF)c3)n3c2CCOCC3)cc(C)n1 [Example 211] | 7.57 |
| Cc1cc(-c2nc(-c3ccc(F)c(C(F)(F)F)c3)n3c2CCO[C@H](CF)C3)cc(C)n1 [Example 173] | 7.72 |
| COc1cc(-c2nc(-c3ccnc(C)c3)c3n2C[C@@H](C)OCC3)ccc1F [Example 141] | 7.28 |
| CCc1ccc(-c2nc(-c3ccnc(C)c3)c3n2C[C@@H](C)OCC3)cc1OCC1CC1 [Example 221] | 7.57 |
